Type in all cases: in vivo
The subject of test [1] is Cowpea aphid (Aphis craccivora). In words: Cowpea aphid (Aphis craccivora) spray on potted cowpea plants. Particulars: assessed after 24, 72, and 120 hours, read-out: mortality in comparison with untreated controls. Here is the method:
II.3 Cowpea Aphid (Aphis craccivora)
The active compounds were formulated in 50:50 (vol:vol) acetone:water. The test solution was prepared at the day of use.
Potted cowpea plants colonized with 100-150 aphids of various stages were sprayed after the pest population had been recorded. Population reduction was assessed after 24, 72, and 120 hours.

In test [2] the test system is Cotton aphid (Aphis gossypii, mixed life stages). In words: Cotton aphid (Aphis gossypii, mixed life stages) foliar spray on infested cotton plants. The settings on record: 120 h, after 5 days, read-out: mortality in comparison with untreated controls. Here is the method: II.1 Cotton Aphid (Aphis gossypii, Mixed Life Stages)
(§1) The active compounds were formulated in cyclohexanone as a 10,000 ppm solution supplied in 1.3 ml ABgene® tubes. These tubes were inserted into an automated electrostatic sprayer equipped with an atomizing nozzle and they served as stock solutions for which lower dilutions were made in 50% acetone:50% water (v/v). A nonionic surfactant (Kinetic®) was included in the solution at a volume of 0.01% (v/v).
Cotton plants at the cotyledon stage were infested with aphids prior to treatment by placing a heavily infested leaf from the main aphid colony on top of each cotyledon. Aphids were allowed to transfer overnight to accomplish an infestation of 80-100 aphids per plant and the host leaf was removed. The infested plants were then sprayed by an automated electrostatic plant sprayer equipped with an atomizing spray nozzle. The plants were dried in the sprayer fume hood, removed from the sprayer, and then maintained in a growth room under fluorescent lighting in a 24-hr photoperiod at 25° C. and 20-40% relative humidity. Aphid mortality on the treated plants, relative to mortality on untreated control plants, was determined after 5 days.

Test [3] has as its system Green peach aphid (Myzus persicae, mixed life stages). The test can be described thus: Green peach aphid (Myzus persicae, mixed life stages) foliar spray on infested bell pepper plants. Particulars: 120 h, after 5 days, read-out: mortality in comparison with untreated controls. Here is the method:
II.2 Green Peach Aphid (Myzus persicae, Mixed Life Stages)
as §1
Bell pepper plants at the first true-leaf stage were infested prior to treatment by placing heavily infested leaves from the main colony on top of the treatment plants. Aphids were allowed to transfer overnight to accomplish an infestation of 30-50 aphids per plant and the host leaves were removed. The infested plants were then sprayed by an automated electrostatic plant sprayer equipped with an atomizing spray nozzle. The plants were dried in the sprayer fume hood, removed, and then maintained in a growth room under fluorescent lighting in a 24-hr photoperiod at 25° C. and 20-40% relative humidity. Aphid mortality on the treated plants, relative to mortality on untreated control plants, was determined after 5 days.

The test system of test [4] is Vetch aphid (Megoura viciae). In words: Vetch aphid (Megoura viciae) bean leaf disk microtiter plate test. The settings on record: foliar, 144 h, test solution 2500 mg/L, bean leaf disks, 6 days. Here is the method: II.4 Vetch Aphid (Megoura viciae)
The active compounds were formulated in 1:3 (vol:vol) DMSO:water with different concentrations of formulated compounds.
Bean leaf disks were placed into microtiterplates filled with 0.8% agar-agar and 2.5 ppm OPUS™. The leaf disks were sprayed with 2.5 μl of the test solution and 5 to 8 adult aphids were placed into the microtiterplates which were then closed and kept at 23±1° C. and 50±5% relative humidity under fluorescent light for 6 days. Mortality was assessed on the basis of vital, reproduced aphids. Aphid mortality and fecundity was then visually assessed.

For test [5], the system named is green peach aphid (Myzus persicae). In words: Green peach aphid (Myzus persicae) systemic test, artificial diet under membrane. Particulars: 72 h, 2500 ppm in aphid diet, 3 days, read-out: mortality in comparison with untreated controls. The text has this: II.6 Activity Against Green Peach Aphid (Myzus persicae)
For evaluating control of green peach aphid (Myzus persicae) through systemic means the test unit consisted of 96-well-microtiter plates containing liquid artificial diet under an artificial membrane.
The compounds were formulated using a solution containing 75% v/v water and 25% v/v DMSO. Different concentrations of formulated compounds were pipetted into the aphid diet, using a custom built pipetter, at two replications. After application, 5 to 8 adult aphids were placed on the artificial membrane inside the microtiter plate wells. The aphids were then allowed to suck on the treated aphid diet and incubated at about 23+1° C. and about 50+5% relative humidity for 3 days. Aphid mortality and fecundity was then visually assessed.

Test [6] concerns Silverleaf whitefly (Bemisia argentifolii, adult). The test can be described thus: Silverleaf whitefly (Bemisia argentifolii, adult) on sprayed cotton plants. The settings on record: 72 h, spray on cotton plants, 3 days after treatment, read-out: mortality in comparison with untreated controls. Here is the method:
II.7 Silverleaf Whitefly (Bemisia argentifolii, Adult)
as §1
Cotton plants at the cotyledon stage (one plant per pot) were sprayed by an automated electrostatic plant sprayer equipped with an atomizing spray nozzle. The plants were dried in the sprayer fume hood and then removed from the sprayer. Each pot was placed into a plastic cup and 10 to 12 whitefly adults (approximately 3-5 days old) were introduced. The insects were collected using an aspirator and 0.6 cm, nontoxic Tygon® tubing (R-3603) connected to a barrier pipette tip. The tip, containing the collected insects, was then gently inserted into the soil containing the treated plant, allowing insects to crawl out of the tip to reach the foliage for feeding. Cups were covered with a reusable screened lid (150-micron mesh polyester screen PeCap from Tetko, Inc.). […] Mortality was assessed 3 days after treatment, compared to untreated control plants.

For one molecule, mortality results are on record in US9247745B2, “Substituted pyridazines for controlling invertebrate pests” (BASF SE, priority 2010, dated 2016).

Where only a bound is given, the exact number is not on record here.

As for `Cc1c(C(=O)/N=c2\ccn(C)nc2)cnn1CC(F)(F)F` [Compound 7, 5-methyl-1-(2,2,2-trifluoro-ethyl)-1H-pyrazole-4-carboxylic acid [1-methyl-1H-pyridazin-(4E)-ylidene]-amide], the mortality at 300 ppm in test [1] is not below 90%; in test [2], not below 75%; in test [3], not below 75%; in test [6], not below 75%. The molecule also showed a mortality at 2500 µg/mL in test [4] not below 90%. The mortality at 2500 ppm in test [5] worked out at 100%.

One may read the mortality as the percentage killed.
